# Data as given in patent publication US20210186973A1, “COMBINATION OF RIBOCICLIB AND DABRAFENIB FOR TREATING OR PREVENTING CANCER” (NOVARTIS AG, priority 2015, published 2021).
# pIC50: −log10 of the molar value. Entries after “also recorded” stand apart in the source; their conditions may differ.
# Experiments:
# Assay type in all cases: cell-based
# [1] = system: 6 B-Raf mutant colorectal cancer cell lines; assay: Cell proliferation over the panel of 6 cell lines; conditions: single agent
# Protocol: (§1) The compounds were dissolved in 100% DMSO (Sigma, Catalog number D2650) at concentrations of 20 mM and stored at −20° C. until use. Compounds were arrayed in drug master plates (Greiner, Catalog number 788876) and serially diluted 3-fold (7 steps) at 2000× concentration.
# (§2) Colorectal cancer cell lines used for this study were obtained, cultured and processed from commercial vendors ATCC, CellBank Australia, and HSRRB (Table 1). All cell line media were supplemented with 10% FBS (HyClone, Catalog number SH30071.03). […]
# (§3) Cell lines were cultured in 37° C. and 5% CO2 incubator and expanded in T-75 flasks. In all cases cells were thawed from frozen stocks, expanded through ≥1 passage using 1:3 dilutions, counted and assessed for viability using a ViCell counter (Beckman-Coulter) prior to plating. […] All cell lines were determined to be free of mycoplasma contamination as determined by a PCR detection methodology performed at Idexx Radil (Columbia, Mo., USA) and correctly identified by detection of a panel of SNPs.
# (§4) Images were analyzed after adapting previously described methods (Horn, Sandmann et al. 2011) and using the Bioconductor package EBImage in R (Pau, Fuchs et al. 2010). Objects in both channels, DAPI (for Hoechst/DNA) and FITC (for Caspase 3/7), were segmented separately by adaptive thresholding and counted. […]
# RKO = assay: Cell proliferation (cell count by microscopy) in RKO; conditions: Homo sapiens; single agent; RKO (BRAF, PIK3CA); 72 h; 50% of cell counts relative to DMSO
# Protocol: as §1, §2, §3, §4
# LS411N = assay: Cell proliferation (cell count by microscopy) in LS411N; conditions: Homo sapiens, LS-411N; single agent; LS411N (BRAF); 72 h; 50% of cell counts relative to DMSO
# Protocol: as §1, §2, §3, §4
# HT-29 = assay: Cell proliferation (cell count by microscopy) in HT-29; conditions: Homo sapiens; single agent; HT-29 (BRAF, PIK3CA); 72 h; 50% of cell counts relative to DMSO
# Protocol: as §1, §2, §3, §4
# LIM2551 = assay: Cell proliferation (cell count by microscopy) in LIM2551; conditions: single agent; LIM2551 (BRAF, PIK3CA); 72 h; 50% of cell counts relative to DMSO
# Protocol: as §1, §2, §3, §4
# COLO-205 = assay: Cell proliferation (cell count by microscopy) in COLO-205; conditions: Homo sapiens; single agent; COLO-205 (BRAF); 72 h; 50% of cell counts relative to DMSO
# Protocol: as §1, §2, §3, §4
# OUMS-23 = assay: Cell proliferation (cell count by microscopy) in OUMS-23; conditions: single agent; OUMS-23 (BRAF); 72 h; 50% of cell counts relative to DMSO
# Protocol: as §1, §2, §3, §4
Compound,IC50s (in words) ([1]; in the PIK3CA mutant cells),pIC50 (RKO),pIC50 (LS411N),pIC50 (HT-29),pIC50 (LIM2551),pIC50 (COLO-205),pIC50 (OUMS-23),IC50s (in words) ([1]; all but one cell line (ODMS-23))
"Cc1nc(NC(=O)N2CCC[C@H]2C(N)=O)sc1-c1ccnc(C(C)(C)C(F)(F)F)c1 [BYL719, (S)-Pyrrolidine-1,2-dicarboxylic acid 2-amide 1-({4-methyl-5-[2-(2,2,2-trifluoro-1,1-dimethyl-ethyl)-pyridin-4-yl]-thiazol-2-yl}-amide)]",micromolar,–,–,–,–,–,–,–
"CC(C)(C)c1nc(-c2cccc(NS(=O)(=O)c3c(F)cccc3F)c2F)c(-c2ccnc(N)n2)s1 [Dabrafenib, N-{3-[5-(2-Amino-4-pyrimidinyl)-2-(1,1-dimethylethyl)-1,3-thiazol-4-yl]-2-fluorophenyl}-2,6-difluorobenzenesulfonamide]",–,6.62,7.44,7.80,7.74,8.15,< 6.00,nanomolar to low micromolar; also recorded: nanomolar to sub-micromolar
